In patent publication US6589993B2, “Treating vancomycin-intermediates and multiresistant staphylococci infection with thiamphenicol or a salt thereof” (Zambon Group S.p.A., priority 2000, dated 2003):

Legend:
[1] = tested on: S. aureus vancomycin-intermediates (VISA) Met-R strains; assay: MIC determination (NCCLS broth microdilution), VISA Met-R strains; type: cell-based, Staphylococcus aureus
Method: (§1) The MICs of thiamphenicol and of other antibiotics was obtained by using the method proposed by NCCLS (National Committee for Clinical Laboratory Standards, 1999).
(§2) Various antibiotic concentrations were added to bacteria in exponental growth (final inoculum 5×10^5 […]); dilution in Mb (cation-supplemented Mueller-Hinton broth) and distribution on a microplate by using an automatic diluting machine Biomek 1000 (Beckman, USA). MHb charged with 2% NaCl was used to test the methicillin activity.
(§3) The antibiotic concentration which hinders a visible growth after 18-24 hours of incubation at 37° C., was registered as MIC.
(§4) S. aureus ATCC 29213 was used as quality control strain.

[2] = tested on: S. aureus Met-R multiresistant strains; assay: MIC determination (NCCLS broth microdilution), methicillin-resistant multiresistant S. aureus strains; type: cell-based, Staphylococcus aureus; conditions: for MIC: antibiotype Oxa, Ery
Method: as §1, §2, §3, §4

CN[C@H](CC(C)C)C(=O)N[C@H]1C(=O)N[C@@H](CC(N)=O)C(=O)N[C@H]2C(=O)N[C@H]3C(=O)N[C@H](C(=O)N[C@H](C(=O)O)c4cc(O)cc(O)c4-c4cc3ccc4O)[C@H](O)c3ccc(c(Cl)c3)Oc3cc2cc(c3O[C@@H]2O[C@H](CO)[C@@H](O)[C@H](O)[C@H]2O[C@H]2C[C@](C)(N)[C@H](O)[C@H](C)O2)Oc2ccc(cc2Cl)[C@H]1O [Vancomicine, vancomycine]
8 µg/mL: MIC ([1]; Staphylococcus aureus, VISA) | MIC ([1]; Strain 52 VISA, antibiotype Oxa, Cip, Clin, Ery)
0,5-2 mg/l: MIC Range ([2]; S. aureus (50) Met-R)
8 mg/L: MIC Range ([1]; VISA (2) Met-R)
2 µg/mL: MIC ([2]; Staphylococcus aureus, Strain 48, Cip, Clin)
1 µg/mL: MIC50 ([2]; Staphylococcus aureus) | MIC90 ([2]; Staphylococcus aureus) | MIC ([2]; Staphylococcus aureus, Strain 2, Clin, Fos) | MIC ([2]; Staphylococcus aureus, Strain 3, Cip, Clin, Gm) | MIC ([2]; Staphylococcus aureus, Strain 4, Cip, Gm) | MIC ([2]; Staphylococcus aureus, Strain 5, Cip, Clin) | MIC ([2]; Staphylococcus aureus, Strain 6, Clin, Gm) | MIC ([2]; Staphylococcus aureus, Strain 8, Cip, Clin) | MIC ([2]; Staphylococcus aureus, Strain 9, Cip, Clin, Gm) | MIC ([2]; Staphylococcus aureus, Strain 10, Cip, Clin, Gm) | MIC ([2]; Staphylococcus aureus, Strain 11, Clin, Rif) | MIC ([2]; Staphylococcus aureus, Strain 12, Cip, Clin) | MIC ([2]; Staphylococcus aureus, Strain 13, Cip, Clin) | MIC ([2]; Staphylococcus aureus, Strain 14, Clin, Cip) | MIC ([2]; Staphylococcus aureus, Strain 16, Cip, Clin) | MIC ([2]; Staphylococcus aureus, Strain 18, Cip, Clin, Gm) | MIC ([2]; Staphylococcus aureus, Strain 19, Cip, Clin, Gm) | MIC ([2]; Staphylococcus aureus, Strain 20, Cip, Clin, Gm) | MIC ([2]; Staphylococcus aureus, Strain 21, Cip, Clin, Gm) | MIC ([2]; Staphylococcus aureus, Strain 23, Cip, Clin, Gm) | MIC ([2]; Staphylococcus aureus, Strain 24, Cip, Clin, Gm) | MIC ([2]; Staphylococcus aureus, Strain 25, Cip, Clin, Gm) | MIC ([2]; Staphylococcus aureus, Strain 26, Cip, Clin, Fos, Gm) | MIC ([2]; Staphylococcus aureus, Strain 27, Cip, Clin, Fos, Gm) | MIC ([2]; Staphylococcus aureus, Strain 28, Cip, Clin, Gm) | MIC ([2]; Staphylococcus aureus, Strain 29, Clin, Fos) | MIC ([2]; Staphylococcus aureus, Strain 31, Cip, Clin, Fox, Gm) | MIC ([2]; Staphylococcus aureus, Strain 32, Cip, Clin, Gm, SXT, Rif) | MIC ([2]; Staphylococcus aureus, Strain 35, Cip, Clin, Gm) | MIC ([2]; Staphylococcus aureus, Strain 44, Cip, Clin, Gm, Rif, Dox) | MIC ([2]; Staphylococcus aureus, Strain 45, Cip, Clin, Gm, Rif, Dox, Fos) | MIC ([2]; Staphylococcus aureus, Strain 49, Cip, Gm) | MIC ([2]; Staphylococcus aureus, Strain 50, Cip, Clin, Gm, Rif, Dox)
0.5 µg/mL: MIC ([2]; Staphylococcus aureus, Strain 1, Cip, Clin, Gm) | MIC ([2]; Staphylococcus aureus, Strain 7, Cip, Gm) | MIC ([2]; Staphylococcus aureus, Strain 15, Cip, Clin, Gm) | MIC ([2]; Staphylococcus aureus, Strain 17, Cip, Clin) | MIC ([2]; Staphylococcus aureus, Strain 22, Cip, Clin) | MIC ([2]; Staphylococcus aureus, Strain 30, Cip, Clin, Gm, SXT, Dox) | MIC ([2]; Staphylococcus aureus, Strain 33, Cip, Clin, Gm) | MIC ([2]; Staphylococcus aureus, Strain 34, Cip, Clin, Gm) | MIC ([2]; Staphylococcus aureus, Strain 36, Cip, Clin, Fos) | MIC ([2]; Staphylococcus aureus, Strain 37, Cip, Clin, Fos, Gm) | MIC ([2]; Staphylococcus aureus, Strain 38, Cip, Gm) | MIC ([2]; Staphylococcus aureus, Strain 39, Cip, Clin, Fos, Gm) | MIC ([2]; Staphylococcus aureus, Strain 40, Cip, Clin, Gm) | MIC ([2]; Staphylococcus aureus, Strain 41, Cip, Clin) | MIC ([2]; Staphylococcus aureus, Strain 42, Cip, Clin, Gm) | MIC ([2]; Staphylococcus aureus, Strain 43, Cip, Clin, Gm) | MIC ([2]; Staphylococcus aureus, Strain 46, Clin, Fos) | MIC ([2]; Staphylococcus aureus, Strain 47, Cip, Clin, Gm)
100%: % susceptible at breakpoint ([2]; S. aureus (50) Met-R, NCCLS (1999) breakpoints)
